Reference: ChEMBL document CHEMBL1136088, “Antitumor agents. Part 218: Cappamensin A, a new In vitro anticancer principle, from Capparis sikkimensis” (2003)
In brackets after ≈: the same amount, converted by molar mass. Activity calls are given as the source filed them. The rule behind the calls is not given here.

Tests used:
MCF7 = test: In vitro anticancer activity against human breast (MCF-7) cell line; assay type: functional; conditions: for EC50: read-out: ED50 (the source's name)
A549 = test: In vitro anticancer activity against human lung (A549) cell line; assay type: functional; conditions: for EC50: read-out: ED50 (the source's name)
KB-VIN [1] = test: In vitro anticancer activity against human vincristine-resistant tumor cell line (KB-VIN)
KB-VIN [2] = test: as above; conditions: read-out: ED50 (the source's name)
PC-3 = test: In vitro anticancer activity against human prostate (PC-3) cell line; assay type: functional; conditions: for EC50: read-out: ED50 (the source's name)
U-87 MG = test: In vitro anticancer activity against human glioblastoma tumor cell line (U-87-MG); assay type: functional, U-87MG ATCC; conditions: for EC50: read-out: ED50 (the source's name)
[3] = In vitro anticancer activity against human ovarian cancer ([…]) cell line; assay type: functional; conditions: read-out: ED50 (the source's name)
HCT-8 = test: In vitro anticancer activity against human ileocecal tumor cell line (HCT-8); assay type: functional; conditions: for EC50: read-out: ED50 (the source's name)
SK-MEL-2 [4] = test: In vitro anticancer activity against human melanoma cancer (SK-MEL-2) cell line; not active at 20 ug/mL; assay type: functional, cell-based
[5] = In vitro anticancer activity against human epidermoid nasopharyngeal tumor cell line (KB); assay type: functional; conditions: for EC50: read-out: ED50 (the source's name)
SK-MEL-2 [6] = test: In vitro anticancer activity against human melanoma cancer (SK-MEL-2) cell line; assay type: functional

SMILES	Inhibition (MCF7) [%]	EC50 (MCF7) [µg/mL]	Inhibition (A549) [%]	EC50 (A549) [µg/mL]	Inhibition (KB-VIN [1]) [%]	EC50 (KB-VIN [2]) [µg/mL]	Inhibition (PC-3) [%]	EC50 (PC-3) [µg/mL]	Inhibition (U-87 MG) [%]	EC50 (U-87 MG) [µg/mL]	EC50 [3] [µg/mL]	Inhibition (HCT-8) [%]	EC50 (HCT-8) [µg/mL]	ED50 (SK-MEL-2 [4])	Inhibition [5] [%]	EC50 [5] [µg/mL]	Inhibition (SK-MEL-2 [6]) [%]	EC50 (SK-MEL-2 [6]; read-out: ED50 (the source's name)) [µg/mL]
COC1=C(C)Oc2cc(OC)ccc2N1C=O	49	> 20	36	> 20	20	> 20	37	> 20	19	> 20	20 (≈ 85 µM)	39	> 20	inactive	22	> 20	–	–
COc1ccc2c(c1)OC(C)=C(O)N2C=O	–	4 (≈ 18.1 µM)	–	3.6 (≈ 16.3 µM)	–	3.5 (≈ 15.8 µM)	–	4.7 (≈ 21.2 µM)	36	> 5	2.4 (≈ 10.8 µM)	–	3.6 (≈ 16.3 µM)	–	–	4 (≈ 18.1 µM)	30	> 5
